# Paper PMC11845477, “Exploring the principles behind antibiotics with limited resistance” (Nature Communications, 2025)
# Where a SMILES comes first, the peptide text is derived from it. Bridges are numbered along the chain shown (N, C = ends). [ ]: non-standard residue; d: D form. The star is where a group is joined. X2 = CC[C@H](C)CCCCC(=O)*; Dab = NCC[C@H](N)C(=O)O
# Experiments:
# [1] = test system: E. coli ATCC 25922 (SEN) and E. coli NCTC13846 (MDR); test: microbe, parasite or virus in culture; assay type: cell-based, Escherichia coli; settings: for MIC: across three biological replicates
# Method in brief: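 Broth microdilution in cation-adjusted Mueller-Hinton Broth 2 (except SCH79797), 11 to 16-step serial dilutions, inoculum 5 × 10^5 cells per mL. Plates shaken at 37 °C for 18 hours, 2 replicates. MIC taken as lowest concentration giving complete growth inhibition, OD600 < 0.05; relative MIC = MICevolved/MICancestor.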
# [2] = test system: P. aeruginosa ATCC BAA-3107 (SEN) and P. aeruginosa LESB58 (MDR); test: Adaptive laboratory evolution (ALE), relative MIC of evolved lines; assay type: cell-based, Pseudomonas aeruginosa
# Method in brief: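 Ten parallel populations per antibiotic–ancestor pair were evolved in MHB at 37 °C, starting near 50% growth-inhibiting drug. Every 72 h they were passaged into 0.5–2.5× increasing concentrations, keeping the highest-drug well with OD600 > 0.2.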
# [3] = E. coli NCTC 13846 (EC-MDR), ancestor strain, sheet fig 2a
# [4] = EC-MDR, Escherichia coli NCTC 13846, ancestor strain
# [5] = EC-SEN, Escherichia coli ATCC 25922, ancestor strain
# [6] = Escherichia coli ATCC 25922 (EC-SEN), ancestor strain, sheet fig 2a
# [7] = Escherichia coli, Escherichia coli ATCC 25922 (EC-SEN)
# [8] = Escherichia coli, Escherichia coli NCTC 13846 (EC-MDR)
# [9] = PA-MDR (Pseudomonas aeruginosa LESB 58), evolved line 1
# [10] = PA-MDR (Pseudomonas aeruginosa LESB 58), evolved line 6
# [11] = PA-MDR, Pseudomonas aeruginosa LESB 58, evolved line 9
# [12] = PA-MDR, Pseudomonas aeruginosa LESB 58, evolved line 10
# [13] = PA-MDR, Pseudomonas aeruginosa LESB 58, evolved line 2
# [14] = PA-MDR, Pseudomonas aeruginosa LESB 58, evolved line 3
# [15] = PA-MDR, Pseudomonas aeruginosa LESB 58, evolved line 4
# [16] = PA-MDR, Pseudomonas aeruginosa LESB 58, evolved line 5
# [17] = PA-MDR, Pseudomonas aeruginosa LESB 58, evolved line 7
# [18] = PA-MDR, Pseudomonas aeruginosa LESB 58, evolved line 8
# [19] = PA-SEN, Pseudomonas aeruginosa ATCC BAA 3107, evolved line 1
# [20] = PA-SEN, Pseudomonas aeruginosa ATCC BAA 3107, evolved line 2
# [21] = PA-SEN, Pseudomonas aeruginosa ATCC BAA 3107, evolved line 3
# [22] = PA-SEN, Pseudomonas aeruginosa ATCC BAA 3107, evolved line 4
# [23] = PA-SEN, Pseudomonas aeruginosa ATCC BAA 3107, evolved line 5
# [24] = PA-SEN, Pseudomonas aeruginosa ATCC BAA 3107, evolved line 6
# [25] = PA-SEN, Pseudomonas aeruginosa ATCC BAA 3107, evolved line 7
# [26] = PA-SEN, Pseudomonas aeruginosa ATCC BAA 3107, evolved line 8
# [27] = PA-SEN, Pseudomonas aeruginosa ATCC BAA 3107, evolved line 9
# [28] = PA-SEN, Pseudomonas aeruginosa ATCC BAA 3107, evolved line 10
smiles,measurement,setting,value
O=c1ccc2ncc(=O)n3c2n1C[C@H]3CN1CCC(NCc2cc3c(cn2)OCCC3)CC1 [Gepotidacin],MIC of ancestor,[1]; [3],2 µg/mL
same,MIC of ancestor,[1]; [4],2 µg/mL
same,MIC of ancestor,[1]; [5],1 µg/mL
same,MIC of ancestor,[1]; [6],1 µg/mL
same,MIC,[1]; [7],1 µg/mL
same,MIC,[1]; [8],2 µg/mL
same,MIC of evolved line,[2]; [9],128 µg/mL
same,Relative MIC,[2]; [9],32
same,Relative MIC (log10),"[2]; PA-MDR (Pseudomonas aeruginosa LESB 58), evolved line 1 adapted to the named antibiotic",1.505
same,Relative MIC (log10),"[2]; PA-MDR (Pseudomonas aeruginosa LESB 58), evolved line 2 adapted to the named antibiotic",1.505
same,Relative MIC (log10),"[2]; PA-MDR (Pseudomonas aeruginosa LESB 58), evolved line 5 adapted to the named antibiotic",1.505
same,MIC of evolved line,[2]; [10],128 µg/mL
same,Relative MIC,[2]; [10],32
same,Relative MIC (log10),"[2]; PA-MDR (Pseudomonas aeruginosa LESB 58), evolved line 7 adapted to the named antibiotic",1.505
same,Relative MIC (log10),"[2]; PA-MDR (Pseudomonas aeruginosa LESB 58), evolved line 8 adapted to the named antibiotic",1.505
same,Relative MIC,"[2]; PA-MDR, Pseudomonas aeruginosa LESB 58, evolved line 1 versus ancestor",32
same,Relative MIC,"[2]; PA-MDR, Pseudomonas aeruginosa LESB 58, evolved line 2 versus ancestor",32
same,Relative MIC,"[2]; PA-MDR, Pseudomonas aeruginosa LESB 58, evolved line 3 versus ancestor",32
same,Relative MIC,"[2]; PA-MDR, Pseudomonas aeruginosa LESB 58, evolved line 4 versus ancestor",32
same,Relative MIC,"[2]; PA-MDR, Pseudomonas aeruginosa LESB 58, evolved line 5 versus ancestor",32
same,Relative MIC,"[2]; PA-MDR, Pseudomonas aeruginosa LESB 58, evolved line 6 versus ancestor",32
same,Relative MIC,"[2]; PA-MDR, Pseudomonas aeruginosa LESB 58, evolved line 7 versus ancestor",32
same,Relative MIC,"[2]; PA-MDR, Pseudomonas aeruginosa LESB 58, evolved line 8 versus ancestor",32
same,MIC of evolved line,[2]; [11],64 µg/mL
same,Relative MIC,[2]; [11],16
same,Relative MIC,"[2]; PA-MDR, Pseudomonas aeruginosa LESB 58, evolved line 9 versus ancestor",16
same,MIC of evolved line,[2]; [12],128 µg/mL
same,Relative MIC,[2]; [12],32
same,Relative MIC,"[2]; PA-MDR, Pseudomonas aeruginosa LESB 58, evolved line 10 versus ancestor",32
same,MIC of evolved line,[2]; [13],128 µg/mL
same,Relative MIC,[2]; [13],32
same,MIC of evolved line,[2]; [14],128 µg/mL
same,Relative MIC,[2]; [14],32
same,MIC of evolved line,[2]; [15],128 µg/mL
same,Relative MIC,[2]; [15],32
same,MIC of evolved line,[2]; [16],128 µg/mL
same,Relative MIC,[2]; [16],32
same,MIC of evolved line,[2]; [17],128 µg/mL
same,Relative MIC,[2]; [17],32
same,MIC of evolved line,[2]; [18],128 µg/mL
same,Relative MIC,[2]; [18],32
same,Relative MIC (log10),"[2]; PA-SEN (Pseudomonas aeruginosa ATCC BAA 3107), evolved line 1 adapted to the named antibiotic",1.806
same,Relative MIC (log10),"[2]; PA-SEN (Pseudomonas aeruginosa ATCC BAA 3107), evolved line 4 adapted to the named antibiotic",1.806
same,Relative MIC (log10),"[2]; PA-SEN (Pseudomonas aeruginosa ATCC BAA 3107), evolved line 6 adapted to the named antibiotic",1.806
same,Relative MIC (log10),"[2]; PA-SEN (Pseudomonas aeruginosa ATCC BAA 3107), evolved line 9 adapted to the named antibiotic",1.806
same,Relative MIC (log10),"[2]; PA-SEN (Pseudomonas aeruginosa ATCC BAA 3107), evolved line 10 adapted to the named antibiotic",1.806
same,MIC of evolved line,[2]; [19],256 µg/mL
same,Relative MIC,[2]; [19],64
same,Relative MIC,"[2]; PA-SEN, Pseudomonas aeruginosa ATCC BAA 3107, evolved line 1 versus ancestor",64
same,MIC of evolved line,[2]; [20],256 µg/mL
same,Relative MIC,[2]; [20],64
same,Relative MIC,"[2]; PA-SEN, Pseudomonas aeruginosa ATCC BAA 3107, evolved line 2 versus ancestor",64
same,MIC of evolved line,[2]; [21],128 µg/mL
same,Relative MIC,[2]; [21],32
same,Relative MIC,"[2]; PA-SEN, Pseudomonas aeruginosa ATCC BAA 3107, evolved line 3 versus ancestor",32
same,MIC of evolved line,[2]; [22],256 µg/mL
same,Relative MIC,[2]; [22],64
same,Relative MIC,"[2]; PA-SEN, Pseudomonas aeruginosa ATCC BAA 3107, evolved line 4 versus ancestor",64
same,MIC of evolved line,[2]; [23],128 µg/mL
same,Relative MIC,[2]; [23],32
same,Relative MIC,"[2]; PA-SEN, Pseudomonas aeruginosa ATCC BAA 3107, evolved line 5 versus ancestor",32
same,MIC of evolved line,[2]; [24],256 µg/mL
same,Relative MIC,[2]; [24],64
same,Relative MIC,"[2]; PA-SEN, Pseudomonas aeruginosa ATCC BAA 3107, evolved line 6 versus ancestor",64
same,MIC of evolved line,[2]; [25],256 µg/mL
same,Relative MIC,[2]; [25],64
same,Relative MIC,"[2]; PA-SEN, Pseudomonas aeruginosa ATCC BAA 3107, evolved line 7 versus ancestor",64
same,MIC of evolved line,[2]; [26],128 µg/mL
same,Relative MIC,[2]; [26],32
same,Relative MIC,"[2]; PA-SEN, Pseudomonas aeruginosa ATCC BAA 3107, evolved line 8 versus ancestor",32
same,MIC of evolved line,[2]; [27],256 µg/mL
same,Relative MIC,[2]; [27],64
same,Relative MIC,"[2]; PA-SEN, Pseudomonas aeruginosa ATCC BAA 3107, evolved line 9 versus ancestor",64
same,MIC of evolved line,[2]; [28],256 µg/mL
same,Relative MIC,[2]; [28],64
same,Relative MIC,"[2]; PA-SEN, Pseudomonas aeruginosa ATCC BAA 3107, evolved line 10 versus ancestor",64
C[C@@H](O)[C@H]1C(=O)N2C(C(=O)O)=C(S[C@@H]3CN[C@H](C(=O)N(C)C)C3)[C@H](C)[C@H]12 [Meropenem],MIC of ancestor,[1]; [3],0.0156 µg/mL
same,MIC of ancestor,[1]; [4],0.0156 µg/mL
same,MIC of ancestor,[1]; [5],0.0312 µg/mL
same,MIC of ancestor,[1]; [6],0.0312 µg/mL
same,MIC,[1]; [7],0.0312 µg/mL
same,MIC,[1]; [8],< 0.0312 µg/mL
same,MIC of evolved line,[2]; [11],256 µg/mL
same,MIC of evolved line,[2]; [12],32 µg/mL
same,MIC of evolved line,[2]; [19],16 µg/mL
same,MIC of evolved line,[2]; [20],64 µg/mL
same,MIC of evolved line,[2]; [22],64 µg/mL
same,MIC of evolved line,[2]; [24],64 µg/mL
same,MIC of evolved line,[2]; [26],32 µg/mL
same,MIC of evolved line,[2]; [28],64 µg/mL
COc1c(N2C[C@@H]3CCCN[C@@H]3C2)c(F)cc2c(=O)c(C(=O)O)cn(C3CC3)c12 [Moxifloxacin],MIC of ancestor,"[1]; Escherichia coli ATCC 25922 (EC-SEN), ancestor",0.0312 µg/mL
same,MIC of ancestor,[1]; [6],0.0312 µg/mL
same,MIC,[1]; [7],0.0312 µg/mL
same,MIC,[1]; [8],> 32 µg/mL
same,MIC of evolved line,"[2]; PA-SEN (ATCC BAA 3107), evolved line 2",256 µg/mL
same,MIC of evolved line,"[2]; PA-SEN (ATCC BAA 3107), evolved line 3",512 µg/mL
same,MIC of evolved line,"[2]; PA-SEN (ATCC BAA 3107), evolved line 4",128 µg/mL
same,MIC of evolved line,"[2]; PA-SEN (ATCC BAA 3107), evolved line 6",512 µg/mL
same,MIC of evolved line,"[2]; PA-SEN (ATCC BAA 3107), evolved line 7",256 µg/mL
same,MIC of evolved line,"[2]; PA-SEN (ATCC BAA 3107), evolved line 8",512 µg/mL
same,MIC of evolved line,"[2]; PA-SEN (ATCC BAA 3107), evolved line 9",256 µg/mL
same,MIC of evolved line,"[2]; PA-SEN (ATCC BAA 3107), evolved line 10",128 µg/mL
same,MIC of evolved line,"[2]; PA-SEN ATCC BAA 3107, evolved line 1",512 µg/mL
CC[C@H](C)CCCCC(=O)N[C@@H](CCN)C(=O)N[C@H](C(=O)N[C@@H](CCN)C(=O)N[C@H]1CCNC(=O)[C@H]([C@@H](C)O)NC(=O)[C@H](CCN)NC(=O)[C@H](CCN)NC(=O)[C@H](CC(C)C)NC(=O)[C@@H](Cc2ccccc2)NC(=O)[C@H](CCN)NC1=O)[C@@H](C)O [Polymyxin B] (X2-[Dab]T[Dab][Dab][Dab][dF]L[Dab][Dab]T; lactam 4-C (inferred); N-terminus assumed),MIC,[1]; Escherichia coli ATCC 25922 (EC-SEN),1 µg/mL
same,MIC,[1]; Escherichia coli NCTC 13846 (EC-MDR),4 µg/mL
same,Relative MIC (log10),[2]; [9],1.505 log10
same,Relative MIC (log10),[2]; [10],1.806 log10
same,Relative MIC (log10),[2]; [11],1.806 log10
same,Relative MIC (log10),[2]; [13],2.107 log10
same,Relative MIC (log10),[2]; [17],1.204 log10
same,Relative MIC (log10),[2]; [19],1.505 log10
same,Relative MIC (log10),[2]; [22],1.505 log10
same,Relative MIC (log10),[2]; [23],1.505 log10
same,Relative MIC (log10),[2]; [25],1.204 log10
same,Relative MIC (log10),[2]; [26],1.204 log10
